From patent US8735414B2 (priority 2009, dated 2014)

Columns and labels:
[1] = test system: bicistronic HCV replicon (replicon RNA, GenBank Accession No. AJ242654); experiment: HCV Replicon Assay; format: cell-based; details: Hepatitis C virus, 72 h, read-out: Replicon IC50

Row | Compound | IC50 [1] [nM] | melting point [°C]
1 | CCc1cc2c(cc1F)c(C#N)c(-c1ccc(S(=O)(=O)N[C@@H](C)C(F)(F)F)cn1)n2-c1ccc(C#N)cc1 [compound 1007, 6-[3-cyano-1-(4-cyanophenyl)-6-ethyl-5-fluoro-1H-indol-2-yl]-N-[(2S)-1,1,1-trifluoropropan-2-yl]pyridine-3-sulfonamide] | < 500 | 288 to 293
2 | Cc1ccc2c(C#N)c(-c3ccc(S(=O)(=O)NC4CC(F)(F)C4)cn3)n(C3CCC3)c2c1 [compound 245, 6-(3-cyano-1-cyclobutyl-6-methyl-1H-indol-2-yl)-N-(3,3-difluorocyclobutyl)pyridine-3-sulfonamide] | < 500 | 165 to 166
3 | Cc1cc2c(C#N)c(-c3ccc(S(=O)(=O)NC(CF)CF)cn3)n(C3CCCC3)c2cc1Cl [compound 521, 6-(6-chloro-3-cyano-1-cyclopentyl-5-methyl-1H-indol-2-yl)-N-(1,3-difluoropropan-2-yl)pyridine-3-sulfonamide] | < 500 | 217.5 to 218
4 | Cc1ccc2c(C#N)c(-c3ccc(S(=O)(=O)NC(CF)CF)cn3)n(C3CCCC3)c2c1F [compound 423, 6-(3-cyano-1-cyclopentyl-7-fluoro-6-methyl-1H-indol-2-yl)-N-(1,3-difluoropropan-2-yl)pyridine-3-sulfonamide] | < 500 | 211 to 216
5 | CC(C)NS(=O)(=O)c1cnc(-c2c(C#N)c3ccc(OC(F)(F)F)cc3n2C2CCC2)nc1 [compound 116, 2-[3-cyano-1-cyclobutyl-6-(trifluoromethoxy)-1H-indol-2-yl]-N-(propan-2-yl)pyrimidine-5-sulfonamide] | < 500 | 200 to 203
6 | N#Cc1c(-c2ccc(S(=O)(=O)NC(CF)CF)cn2)n(CC2CC2)c2cc(F)ccc12 [compound 57, 6-[3-cyano-1-(cyclopropylmethyl)-6-fluoro-1H-indol-2-yl]-N-(1,3-difluoropropan-2-yl)pyridine-3-sulfonamide] | < 500 | 188 to 190
7 | N#Cc1c(-c2ccc(S(=O)(=O)NC3CC(F)(F)C3)cn2)n(C2CCC2)c2cc(C3CC3)ccc12 [compound 247, 6-(3-cyano-1-cyclobutyl-6-cyclopropyl-1H-indol-2-yl)-N-(3,3-difluorocyclobutyl)pyridine-3-sulfonamide] | 500 to 2000 | 176 to 178
8 | COc1ccc2c(c1)c(C#N)c(-c1ccc(S(=O)(=O)NC(CF)CF)cn1)n2C1CCC1 [compound 550, 6-(3-cyano-1-cyclobutyl-5-methoxy-1H-indol-2-yl)-N-(1,3-difluoropropan-2-yl)pyridine-3-sulfonamide] | < 500 | 149 to 150
9 | COc1ccc2c(C#N)c(-c3ncc(S(=O)(=O)N[C@@H](C)C(F)(F)F)cn3)n(C3CCCC3)c2c1 [compound 406, 2-(3-cyano-1-cyclopentyl-6-methoxy-1H-indol-2-yl)-N-[(2S)-1,1,1-trifluoropropan-2-yl]pyrimidine-5-sulfonamide] | < 500 | 211 to 212
10 | Cc1ccc2c(C#N)c(-c3ncc(S(=O)(=O)NC(CF)CF)cn3)n(C3CCCC3)c2c1F [compound 586, 2-(3-cyano-1-cyclopentyl-7-fluoro-6-methyl-1H-indol-2-yl)-N-(1,3-difluoropropan-2-yl)pyrimidine-5-sulfonamide] | < 500 | 226 to 232
11 | CC(C)c1ccc2c(C#N)c(-c3ncc(S(=O)(=O)NC(CF)CF)cn3)n(C3CCC3)c2c1 [compound 186, 2-[3-cyano-1-cyclobutyl-6-(propan-2-yl)-1H-indol-2-yl]-N-(1,3-difluoropropan-2-yl)pyrimidine-5-sulfonamide] | < 500 | 214 to 222
12 | CC(C)Cn1c(-c2ccc(S(=O)(=O)N[C@@H](C)C(F)(F)F)cn2)c(C#N)c2cc(F)c(OC(F)F)cc21 [compound 937, 6-[3-cyano-6-(difluoromethoxy)-5-fluoro-1-(2-methylpropyl)-1H-indol-2-yl]-N-[(2S)-1,1,1-trifluoropropan-2-yl]pyridine-3-sulfonamide] | < 500 | 130 to 134
13 | N#Cc1c(-c2ccc(S(=O)(=O)NC(CF)CF)cn2)n(-c2ccccc2)c2cc(OC(F)F)ccc12 [compound 226, 6-[3-cyano-6-(difluoromethoxy)-1-phenyl-1H-indol-2-yl]-N-(1,3-difluoropropan-2-yl)pyridine-3-sulfonamide] | < 500 | 200 to 202
14 | N#Cc1c(-c2ccc(S(=O)(=O)Nc3ccccc3)cn2)n(C2CCC2)c2cc(OC(F)F)c(F)cc12 [compound 791, 6-[3-cyano-1-cyclobutyl-6-(difluoromethoxy)-5-fluoro-1H-indol-2-yl]-N-phenylpyridine-3-sulfonamide] | 2000 to 5000 | 178 to 179
15 | Cc1ccc2c(C#N)c(-c3ccc(S(=O)(=O)NC(CF)CF)cn3)n(-c3ccccc3)c2c1 [compound 111, 6-(3-cyano-6-methyl-1-phenyl-1H-indol-2-yl)-N-(1,3-difluoropropan-2-yl)pyridine-3-sulfonamide] | < 500 | 181 to 185
16 | CCc1ccc2c(C#N)c(-c3ccc(S(=O)(=O)N[C@H](C)C(F)(F)F)cn3)n(C3CCCC3)c2c1 [compound 311, 6-(3-cyano-1-cyclopentyl-6-ethyl-1H-indol-2-yl)-N-[(2R)-1,1,1-trifluoropropan-2-yl]pyridine-3-sulfonamide] | < 500 | 185 to 186
17 | Cc1cc2c(cc1F)c(C#N)c(-c1ccc(S(=O)(=O)N[C@@H](C)C(F)(F)F)cn1)n2-c1ncccc1C [compound 739, 6-[3-cyano-5-fluoro-6-methyl-1-(3-methylpyridin-2-yl)-1H-indol-2-yl]-N-[(2S)-1,1,1-trifluoropropan-2-yl]pyridine-3-sulfonamide] | < 500 | 219 to 221
18 | CC(C)NS(=O)(=O)c1cnc(-c2c(C#N)c3ccc(C(C)C)cc3n2C2CCC2)nc1 [compound 185, 2-[3-cyano-1-cyclobutyl-6-(propan-2-yl)-1H-indol-2-yl]-N-(propan-2-yl)pyrimidine-5-sulfonamide] | < 500 | 220 to 222
19 | N#Cc1c(-c2ncc(S(=O)(=O)NC(CF)CF)cn2)n(C2CCCCC2)c2cc(OC(F)F)ccc12 [compound 179, 2-[3-cyano-1-cyclohexyl-6-(difluoromethoxy)-1H-indol-2-yl]-N-(1,3-difluoropropan-2-yl)pyrimidine-5-sulfonamide] | < 500 | 174 to 176
20 | CCc1cc2c(cc1F)c(C#N)c(-c1ccc(S(=O)(=O)N[C@@H](C)C(F)(F)F)cn1)n2-c1cc(Cl)ccn1 [compound 993, 6-[1-(4-chloropyridin-2-yl)-3-cyano-6-ethyl-5-fluoro-1H-indol-2-yl]-N-[(2S)-1,1,1-trifluoropropan-2-yl]pyridine-3-sulfonamide] | < 500 | 185 to 190
21 | Cc1cc2c(C#N)c(-c3ncc(S(=O)(=O)NC(C)C)cn3)n(C3CCCC3)c2cc1Cl [compound 523, 2-(6-chloro-3-cyano-1-cyclopentyl-5-methyl-1H-indol-2-yl)-N-(propan-2-yl)pyrimidine-5-sulfonamide] | 500 to 2000 | 216 to 216.5
22 | CCc1cc2c(cc1F)c(C#N)c(-c1ccc(S(=O)(=O)NC(CF)CF)cn1)n2C1CCCC1 [compound 639, 6-(3-cyano-1-cyclopentyl-6-ethyl-5-fluoro-1H-indol-2-yl)-N-(1,3-difluoropropan-2-yl)pyridine-3-sulfonamide] | < 500 | 179.5 to 180
23 | CC(C)(NS(=O)(=O)c1ccc(-c2c(C#N)c3ccc(CC(F)F)cc3n2C2CCCC2)nc1)C(F)(F)F [compound 596, 6-[3-cyano-1-cyclopentyl-6-(2,2-difluoroethyl)-1H-indol-2-yl]-N-(1,1,1-trifluoro-2-methylpropan-2-yl)pyridine-3-sulfonamide] | < 500 | 194 to 199
24 | CCc1cc2c(cc1F)c(C#N)c(-c1ccc(S(=O)(=O)N[C@@H](C)C(F)(F)F)c(C)n1)n2-c1ccccn1 [compound 887, 6-[3-cyano-6-ethyl-5-fluoro-1-(pyridin-2-yl)-1H-indol-2-yl]-2-methyl-N-[(2S)-1,1,1-trifluoropropan-2-yl]pyridine-3-sulfonamide] | < 500 | 219 to 224
25 | C[C@H](NS(=O)(=O)c1ccc(-c2c(C#N)c3ccc(Cl)cc3n2-c2ccccn2)nc1)C1CC1 [compound 488, 6-[6-chloro-3-cyano-1-(pyridin-2-yl)-1H-indol-2-yl]-N-[(1S)-1-cyclopropylethyl]pyridine-3-sulfonamide] | < 500 | 199 to 201
26 | C[C@H](NS(=O)(=O)c1cnc(-c2c(C#N)c3cc(Cl)ccc3n2C2CCCC2)nc1)C(F)(F)F [compound 419, 2-(5-chloro-3-cyano-1-cyclopentyl-1H-indol-2-yl)-N-[(2S)-1,1,1-trifluoropropan-2-yl]pyrimidine-5-sulfonamide] | 500 to 2000 | 243 to 249
27 | CCc1cc2c(cc1F)c(C#N)c(-c1ccc(S(=O)(=O)N[C@@H](C)C(F)(F)F)cn1)n2-c1cccc(OC)c1 [compound 1010, 6-[3-cyano-6-ethyl-5-fluoro-1-(3-methoxyphenyl)-1H-indol-2-yl]-N-[(2S)-1,1,1-trifluoropropan-2-yl]pyridine-3-sulfonamide] | < 500 | 229 to 233
28 | Cc1ccc2c(C#N)c(-c3ncc(S(=O)(=O)N[C@@H](C)C(F)(F)F)cn3)n(C3CCCCC3)c2c1 [compound 605, 2-(3-cyano-1-cyclohexyl-6-methyl-1H-indol-2-yl)-N-[(2S)-1,1,1-trifluoropropan-2-yl]pyrimidine-5-sulfonamide] | < 500 | 257 to 260
29 | N#Cc1c(-c2ccc(S(=O)(=O)NC(CF)CF)cn2)n(C2CCOC2)c2ccc(F)cc12 (stereo not shown) [compound 46, 6-[3-cyano-5-fluoro-1-(tetrahydrofuran-3-yl)-1H-indol-2-yl]-N-(1,3-difluoropropan-2-yl)pyridine-3-sulfonamide] | < 500 | 194 to 197
